# Results from patent publication US7053175B1, “Synthetic peptides useful in biological assays for detecting infections caused by group O HIV-1 viruses” (Bio-Rad Pasteur, priority 1997, dated 2006).
# No end group written: not given here.
# Legend:
# [1] = test system: serum samples from patients infected with group O HIV-1 retroviruses; test: Immunoenzymatic test: Test No. 2 (immunoreactivity with diluted sera); format: binding, human; conditions: solid phase peptide 2 μg/ml; for Number of samples: sera of Table V; for ABSORBANCE (OD): cyclized
# Source text: The serum samples from patients infected with group O HIV-1 retroviruses were obtained by the Yaounde Pasteur Centre in Cameroon and were serotyped group O according to the serological algorithm described in AIDS (1977), 11, pp. 445-453. A genotyped sample (Maryland) is obtained from the United States. These samples were previously diluted in negative human serum at the dilutions given in Table V, in order to have a sufficient volume for the different immunoreactivity tests.
# The synthetic peptides used were dissolved in water at a concentration of 1 mg/ml (stock solution). For the solid phase sensitization step (“coating”), the procedure was carried out as described for Example 2.
# The serum samples were diluted 1/5 with a skimmed milk solution (citrate buffer supplemented with 0.01% of phenol red, 0.25% of chloroform and 0.25% of Kathon®), deposited in the wells of plates and incubated for 30 min at 40° C.
# After washing with a Tris-NaCl buffer solution pH 7.4 containing 0.1% of Tween® 20 and 0.001% of sodium merthiolate, 100 μl of a solution of conjugate consisting of horseradish peroxidase-labelled anti-human IgG and IgM goat antibodies, containing as preservative 0.01% of sodium merthiolate, in solution in a citrate buffer solution supplemented with 30% glycerol and 25% normal foetal calf serum, were added to each well of the plates and then they were incubated for 30 min at 40° C.
# After washing with a Tris-NaCl buffer solution pH 7.4 containing 0.1% of Tween® 20 and 0.001% of sodium merthiolate, the colour was developed as described in Example 2.
# The relative absorbance (OD) (A490-A620) read in each well is proportional to the immunoreactivity of each peptide. It indicates the ability of each peptide to react with the biological sample with which the test is carried out.
# The reactivity of the peptides of the invention, peptides No. 10 (14B), No. 11 (18B), No. 12 (19B), No. 14 (21B), No. 15 (22B), No. 16 (23B) all in cyclized form, was compared with that of three homologous synthetic peptides having, as sequence, a portion of the natural sequence of the envelope (env) of a group O HIV-1 retrovirus. These peptides are two peptides derived from the VAU isolate—the peptide VAU 22 AA and the peptide VAU 35 AA—and the peptide MVP 5180 (designated “MVP 5180” in Table V). The peptides VAU 22 AA and VAU 35 AA (whose structure is indicated in Example 2) and the peptide MVP 5180 comprise an immunodominant epitope of gp41.
# All these peptides were used in cyclized form. The sequence of the MVP 5180 peptide is the following:
# For each peptide tested, the samples were arranged into four classes (a, b, c and d) corresponding to various levels of relative absorbance read at the wavelengths A492-A620: • for a: OD<0.100, • for b: 0.100<OD<0.500, • for c: 0.500<OD<1.000, • for d: OD>1.000, thus making it possible to evaluate the degree of immunoreactivity of the peptides.
# [2] = test system: sera from patients infected with group O HIV-1 retroviruses; test: Immunoenzymatic test of compositions containing peptides (Example 4); format: binding, human; parameters: key: >: signal greater than the reading capacity of the spectrophotometer; conditions: single peptide 2 μg/ml or composition 1 μg/ml + 1 μg/ml
# Protocol: For this test, the procedure was carried out according to the protocol described in Example 2 and the same sera were used. The microplates used were sensitized either with peptide No. 1 (2B) cyclized, or with peptide No. 3 (4B) cyclized, or with a composition containing these two peptides (1:1 w/w). Into each well, there were deposited either 100 μl of a solution containing 2 μg/ml of peptide No. 1 (2B), or 100 μl of a solution containing 2 μg/ml of peptide No. 3 (4B), or 100 μl of a solution containing 1 μg/ml of peptide No. 1 (2B) and 1 μg/ml of peptide No. 3 (4B).
sequence,measurement,setting,value
"RLLALETFIEENELLNLWGCKNRAICYTSVKWNKT (cysteine pairing not given here) [VAU 35 AA, reference compound]",Number of samples,[1]; CLASS A (a: OD<0.100),11
same,Number of samples,[1]; CLASS B (b: 0.100<OD<0.500),3
same,Number of samples,[1]; CLASS C (c: 0.500<OD<1.000),0
same,Number of samples,[1]; CLASS D (d: OD>1.000),0
same,ABSORBANCE (OD),[1]; serum 258 OUDI at 1/100,0.058
same,ABSORBANCE (OD),[1]; serum 625 at 1/50,0.069
same,ABSORBANCE (OD),[1]; serum 3600 at 1/100,0.025
same,ABSORBANCE (OD),[1]; serum 3613 at ¼00,0.250
same,ABSORBANCE (OD),[1]; serum 3653 at 1/10,0.021
same,ABSORBANCE (OD),[1]; serum 4280 at 1/50,0.013
same,ABSORBANCE (OD),[1]; serum 6111 at 1/100,0.087
same,ABSORBANCE (OD),[1]; serum DJOU at 1/100,0.022
same,ABSORBANCE (OD),[1]; serum DO15 at 1/100,0.036
same,ABSORBANCE (OD),[1]; serum MBASSI at 1/100,0.120
same,ABSORBANCE (OD),[1]; serum Maryland at ¼00,0.054
same,ABSORBANCE (OD),[1]; serum NGO at 1/50,0.055
same,ABSORBANCE (OD),[1]; serum NJEM at 1/100,0.159
same,ABSORBANCE (OD),[1]; serum WANG at 1/50,0.025
LLSSWGCKGRLVCYTSVQWNET [PEPTIDE No. 3 (4B)],ABSORBANCE,[2]; serum 1062,>
same,ABSORBANCE,[2]; serum 1702,>
same,ABSORBANCE,[2]; serum 1754,>
same,ABSORBANCE,[2]; serum 2294,>
same,ABSORBANCE,[2]; serum 2352,>
same,ABSORBANCE,[2]; serum 2551,>
same,ABSORBANCE,[2]; serum 2700,>
same,ABSORBANCE,[2]; serum 3016,>
same,ABSORBANCE,[2]; serum 3136 (listed twice),>
same,ABSORBANCE,[2]; serum 3235,>
same,ABSORBANCE,[2]; serum 3302,>
same,ABSORBANCE,[2]; serum 3482,>
same,ABSORBANCE,[2]; serum 3600,>
same,ABSORBANCE,[2]; serum 3627,>
same,ABSORBANCE,[2]; serum 3771,>
same,ABSORBANCE,[2]; serum 3891,>
same,ABSORBANCE,[2]; serum 3935,>
same,ABSORBANCE,[2]; serum 4477*,>
same,ABSORBANCE,[2]; serum 4489,>
same,ABSORBANCE,[2]; serum 5149,>
same,ABSORBANCE,[2]; serum 5270,>
same,ABSORBANCE,[2]; serum 5931,>
same,ABSORBANCE,[2]; serum 6165,>
same,ABSORBANCE,[2]; serum 6198,>
same,ABSORBANCE,[2]; serum 6627,>
same,ABSORBANCE,[2]; serum 6697,>
same,ABSORBANCE,[2]; serum 6891,>
same,ABSORBANCE,[2]; serum 6976,>
same,ABSORBANCE,[2]; serum 6998,>
same,ABSORBANCE,[2]; serum 7258,>
same,ABSORBANCE,[2]; serum 7443,>
"LLNLWGCKNRAICYTSVKWNKT (cysteine pairing not given here) [VAU 22 AA, reference compound]",Number of samples,[1]; CLASS A (a: OD<0.100),7
same,Number of samples,[1]; CLASS B (b: 0.100<OD<0.500),7
same,Number of samples,[1]; CLASS C (c: 0.500<OD<1.000),0
same,Number of samples,[1]; CLASS D (d: OD>1.000),0
same,ABSORBANCE (OD),[1]; serum 258 OUDI at 1/100,0.100
same,ABSORBANCE (OD),[1]; serum 625 at 1/50,0.165
same,ABSORBANCE (OD),[1]; serum 3600 at 1/100,0.058
same,ABSORBANCE (OD),[1]; serum 3613 at ¼00,0.396
same,ABSORBANCE (OD),[1]; serum 3653 at 1/10,0.310
same,ABSORBANCE (OD),[1]; serum 4280 at 1/50,0.021
same,ABSORBANCE (OD),[1]; serum 6111 at 1/100,0.180
same,ABSORBANCE (OD),[1]; serum DJOU at 1/100,0.042
same,ABSORBANCE (OD),[1]; serum DO15 at 1/100,0.075
same,ABSORBANCE (OD),[1]; serum MBASSI at 1/100,0.257
same,ABSORBANCE (OD),[1]; serum Maryland at ¼00,0.168
same,ABSORBANCE (OD),[1]; serum NGO at 1/50,0.040
same,ABSORBANCE (OD),[1]; serum NJEM at 1/100,0.024
same,ABSORBANCE (OD),[1]; serum WANG at 1/50,0.041
LLSLWGCRGKAVCYTSVQWNET [PEPTIDE No. 1 (2B)],ABSORBANCE,[2]; serum 1062,>
same,ABSORBANCE,[2]; serum 1702,1.016
same,ABSORBANCE,[2]; serum 1754,>
same,ABSORBANCE,[2]; serum 2294,0.447
same,ABSORBANCE,[2]; serum 2352,0.205
same,ABSORBANCE,[2]; serum 2551,>
same,ABSORBANCE,[2]; serum 2700,>
same,ABSORBANCE,[2]; serum 3016,0.243
same,ABSORBANCE,[2]; serum 3136 (listed twice),0.302
same,ABSORBANCE,[2]; serum 3235,>
same,ABSORBANCE,[2]; serum 3302,0.386
same,ABSORBANCE,[2]; serum 3482,1.473
same,ABSORBANCE,[2]; serum 3600,2.743
same,ABSORBANCE,[2]; serum 3627,2.910
same,ABSORBANCE,[2]; serum 3771,0.544
same,ABSORBANCE,[2]; serum 3891,2.780
same,ABSORBANCE,[2]; serum 3935,0.307
same,ABSORBANCE,[2]; serum 4477*,>
same,ABSORBANCE,[2]; serum 4489,>
same,ABSORBANCE,[2]; serum 5149,>
same,ABSORBANCE,[2]; serum 5270,>
same,ABSORBANCE,[2]; serum 5931,>
same,ABSORBANCE,[2]; serum 6165,2.714
same,ABSORBANCE,[2]; serum 6198,>
same,ABSORBANCE,[2]; serum 6627,>
same,ABSORBANCE,[2]; serum 6697,>
same,ABSORBANCE,[2]; serum 6891,0.062
same,ABSORBANCE,[2]; serum 6976,>
same,ABSORBANCE,[2]; serum 6998,>
same,ABSORBANCE,[2]; serum 7258,2.477
same,ABSORBANCE,[2]; serum 7443,>
